{"source": "paper PMC5218480", "about": "(PLoS ONE, 2017)", "tested_on": "MV-4-11 cells", "experiment": "Gene expression microarray analysis (Affymetrix PrimeView) and GSEA", "type": "cell-based, human", "design": "RFU PODN (11730768_x_at) / Fold change /veh PODN (11730768_x_at) / RFU LINC00158 (11744669_a_at) / Fold change /veh LINC00158 (11744669_a_at) / RFU DUSP10 (11751237_a_at) / Fold change /veh DUSP10 (11751237_a_at) / RFU ID3 (11757404_x_at) / Fold change /veh ID3 (11757404_x_at) / RFU PLEKHG5 (11737974_s_at) / Fold change /veh PLEKHG5 (11737974_s_at) / RFU LRRC4B (11730491_at) / Fold change /veh LRRC4B (11730491_at) / RFU GIMAP4 (11747438_a_at) / Fold change /veh GIMAP4 (11747438_a_at) / RFU KRT8 (11758183_x_at) / Fold change /veh KRT8 (11758183_x_at) / RFU CNN1 (11734310_a_at) / Fold change /veh CNN1 (11734310_a_at) / RFU VPS37D (11726825_at) / Fold change /veh VPS37D (11726825_at) / RFU C10orf10 (11716522_x_at) / Fold change /veh C10orf10 (11716522_x_at) / RFU KIR2DL2 /// KIR2DL4 /// KIR2DL5A /// KIR2DL5B /// KIR2DS1 /// KIR2DS2 /// KIR2DS3 /// KIR2DS4 /// KIR3DL3 /// KIR3DL3 /// KIR3DS1 (11738374_at) / Fold change /veh KIR2DL2 /// KIR2DL4 /// KIR2DL5A /// KIR2DL5B /// KIR2DS1 /// KIR2DS2 /// KIR2DS3 /// KIR2DS4 /// KIR3DL3 /// KIR3DL3 /// KIR3DS1 (11738374_at) / RFU C1QL1 (11718748_at) / Fold change /veh C1QL1 (11718748_at) / RFU TMPRSS4 (11747572_a_at) / Fold change /veh TMPRSS4 (11747572_a_at) / RFU HAMP (11756126_x_at) / Fold change /veh HAMP (11756126_x_at) / RFU RNFT2 (11725882_a_at) / Fold change /veh RNFT2 (11725882_a_at) / RFU NR4A2 (11747474_a_at) / Fold change /veh NR4A2 (11747474_a_at) / RFU ABCC12 (11746883_a_at) / Fold change /veh ABCC12 (11746883_a_at) / RFU TMEM136 (11760407_x_at) / Fold change /veh TMEM136 (11760407_x_at) / RFU CLDN22 /// WWC2 (11732394_at) / Fold change /veh CLDN22 /// WWC2 (11732394_at) / RFU HLA-DPB1 (11760878_x_at) / Fold change /veh HLA-DPB1 (11760878_x_at) / RFU SPINT1 (11716480_a_at) / Fold change /veh SPINT1 (11716480_a_at) / RFU GAP43 (11754022_s_at) / Fold change /veh GAP43 (11754022_s_at) / RFU A4GNT (11735810_at) / Fold change /veh A4GNT (11735810_at) / RFU PRB3 (11715151_x_at) / Fold change /veh PRB3 (11715151_x_at) / RFU TUBB4B (11761932_at) / Fold change /veh TUBB4B (11761932_at) / RFU CAPN14 (11732068_a_at) / Fold change /veh CAPN14 (11732068_a_at) / RFU TMCC2 (11721928_a_at) / Fold change /veh TMCC2 (11721928_a_at) / RFU IRGQ (11745062_a_at) / Fold change /veh IRGQ (11745062_a_at) / RFU FAM174B (11720279_a_at) / Fold change /veh FAM174B (11720279_a_at) / RFU TMPRSS4 (11748680_a_at) / Fold change /veh TMPRSS4 (11748680_a_at) / RFU FAM212B (11763350_a_at) / Fold change /veh FAM212B (11763350_a_at) / RFU PLEKHG5 (11743358_a_at) / Fold change /veh PLEKHG5 (11743358_a_at) / RFU ZSCAN30 (11745921_a_at) / Fold change /veh ZSCAN30 (11745921_a_at) / RFU CMKLR1 (11741424_a_at) / Fold change /veh CMKLR1 (11741424_a_at) / RFU LOC101060620 /// MAPK8IP1 (11723275_at) / Fold change /veh LOC101060620 /// MAPK8IP1 (11723275_at) / RFU SPTSSB (11747773_x_at) / Fold change /veh SPTSSB (11747773_x_at) / RFU PRSS12 (11739890_at) / Fold change /veh PRSS12 (11739890_at) / RFU BIN1 (11741810_x_at) / Fold change /veh BIN1 (11741810_x_at) / RFU WNT11 (11732464_a_at) / Fold change /veh WNT11 (11732464_a_at) / RFU C10orf10 (11716521_a_at) / Fold change /veh C10orf10 (11716521_a_at) / RFU C5orf56 (11738089_at) / Fold change /veh C5orf56 (11738089_at) / RFU CYB561 (11721691_x_at) / Fold change /veh CYB561 (11721691_x_at) / RFU ANKRD19P (11752326_a_at) / Fold change /veh ANKRD19P (11752326_a_at) / RFU OR2T12 /// OR2T33 /// OR2T8 (11738714_s_at) / Fold change /veh OR2T12 /// OR2T33 /// OR2T8 (11738714_s_at) / RFU VCAN (11748164_a_at) / Fold change /veh VCAN (11748164_a_at) / RFU JSRP1 (11732532_at) / Fold change /veh JSRP1 (11732532_at) / RFU KRTAP10-11 (11738290_x_at) / Fold change /veh KRTAP10-11 (11738290_x_at) / RFU MYO3A (11730013_a_at) / Fold change /veh MYO3A (11730013_a_at) / RFU EBF3 (11725865_a_at) / Fold change /veh EBF3 (11725865_a_at) / RFU CAMK2N1 (11719241_x_at) / Fold change /veh CAMK2N1 (11719241_x_at) / RFU C5orf56 (11738088_a_at) / Fold change /veh C5orf56 (11738088_a_at) / RFU OLFML3 (11715873_a_at) / Fold change /veh OLFML3 (11715873_a_at) / RFU LOC100653217 /// NTM (11731650_a_at) / Fold change /veh LOC100653217 /// NTM (11731650_a_at) / RFU MAPK11 (11762145_a_at) / Fold change /veh MAPK11 (11762145_a_at) / RFU FIZ1 (11724087_x_at) / Fold change /veh FIZ1 (11724087_x_at) / RFU OASL (11726364_x_at) / Fold change /veh OASL (11726364_x_at) / RFU SOX15 (11748057_x_at) / Fold change /veh SOX15 (11748057_x_at) / RFU CD79A (11719716_a_at) / Fold change /veh CD79A (11719716_a_at) / RFU HIST1H1D (11736915_at) / Fold change /veh HIST1H1D (11736915_at) / RFU CASKIN2 (11723855_a_at) / Fold change /veh CASKIN2 (11723855_a_at) / RFU LOC730098 (11760151_x_at) / Fold change /veh LOC730098 (11760151_x_at) / RFU OR4N2 (11742367_at) / Fold change /veh OR4N2 (11742367_at) / RFU PRRT2 (11749266_a_at) / Fold change /veh PRRT2 (11749266_a_at) / RFU SNX32 (11753110_a_at) / Fold change /veh SNX32 (11753110_a_at) / RFU CDHR5 (11726645_a_at) / Fold change /veh CDHR5 (11726645_a_at) / RFU RCAN1 (11760418_a_at) / Fold change /veh RCAN1 (11760418_a_at) / RFU FAM167A (11723789_a_at) / Fold change /veh FAM167A (11723789_a_at) / RFU FAM26E (11764081_at) / Fold change /veh FAM26E (11764081_at) / RFU ISYNA1 (11749810_s_at) / Fold change /veh ISYNA1 (11749810_s_at) / RFU ACY1 (11761880_at) / Fold change /veh ACY1 (11761880_at) / RFU 11764098_at / Fold change /veh 11764098_at / RFU SAMD14 (11745864_x_at) / Fold change /veh SAMD14 (11745864_x_at) / RFU NPB (11741838_a_at) / Fold change /veh NPB (11741838_a_at) / RFU TMPRSS6 (11731388_a_at) / Fold change /veh TMPRSS6 (11731388_a_at) / RFU KRTAP10-2 (11738614_at) / Fold change /veh KRTAP10-2 (11738614_at) / RFU ARHGAP8 /// PRR5-ARHGAP8 (11727945_x_at) / Fold change /veh ARHGAP8 /// PRR5-ARHGAP8 (11727945_x_at) / RFU KRTAP5-7 /// NADSYN1 (11734609_at) / Fold change /veh KRTAP5-7 /// NADSYN1 (11734609_at) / RFU RASL12 (11751679_a_at) / Fold change /veh RASL12 (11751679_a_at) / RFU CDKN2B (11736163_a_at) / Fold change /veh CDKN2B (11736163_a_at) / RFU PRF1 (11729649_at) / Fold change /veh PRF1 (11729649_at) / RFU, ZNF638 /// ZNF638-IT1 / Fold change vs veh, ZNF638 /// ZNF638-IT1 / RFU, PANK3 / Fold change vs veh, PANK3 / RFU, SH3YL1 / Fold change vs veh, SH3YL1 / RFU, ZEB2 / Fold change vs veh, ZEB2 / RFU, NRIP1 / Fold change vs veh, NRIP1 / RFU, PTTG1IP / Fold change vs veh, PTTG1IP / RFU, CAPN2 / Fold change vs veh, CAPN2 / RFU, MED14 / Fold change vs veh, MED14 / RFU, SNORA58 / Fold change vs veh, SNORA58 / RFU, C1orf63 / Fold change vs veh, C1orf63 / RFU, LRRFIP1 / Fold change vs veh, LRRFIP1 / RFU, NDUFAF7 / Fold change vs veh, NDUFAF7 / RFU, SLC12A2 / Fold change vs veh, SLC12A2 / RFU, IBTK / Fold change vs veh, IBTK / RFU, ESF1 / Fold change vs veh, ESF1 / Fold change vs veh, TMEM50B / RFU, TAOK1 / Fold change vs veh, TAOK1 / RFU, ACBD3 / Fold change vs veh, ACBD3 / RFU, TMA16 / Fold change vs veh, TMA16 / RFU, RWDD3 / Fold change vs veh, RWDD3 / RFU, BCAT1 / Fold change vs veh, BCAT1 / RFU, EDEM3 / Fold change vs veh, EDEM3 / RFU, TMEM33 / Fold change vs veh, TMEM33 / RFU, WDR75 / Fold change vs veh, WDR75 / RFU, AHCTF1 / Fold change vs veh, AHCTF1 / RFU, TFRC / Fold change vs veh, TFRC / RFU, ZDHHC17 / Fold change vs veh, ZDHHC17 / RFU, NOM1 / Fold change vs veh, NOM1 / RFU, ARL8B / Fold change vs veh, ARL8B / RFU, ZBTB11 / Fold change vs veh, ZBTB11 / RFU, TAMM41 / Fold change vs veh, TAMM41 / RFU, KIAA1704 /// LOC100996395 / Fold change vs veh, KIAA1704 /// LOC100996395 / RFU, ING1 / Fold change vs veh, ING1 / RFU, TRMT61B / Fold change vs veh, TRMT61B / RFU, FUBP3 / Fold change vs veh, FUBP3 / RFU, TP53 / Fold change vs veh, TP53 / RFU, TNKS2 / Fold change vs veh, TNKS2 / RFU, ZFP14 / Fold change vs veh, ZFP14 / RFU, ACTR2 / Fold change vs veh, ACTR2 / RFU, PPP3R1 / Fold change vs veh, PPP3R1 / RFU, PIK3R1 / Fold change vs veh, PIK3R1 / RFU, HNRNPA1 / Fold change vs veh, HNRNPA1 / RFU, RNF170 / Fold change vs veh, RNF170 / RFU, ZNF28 / Fold change vs veh, ZNF28 / RFU, RNGTT / Fold change vs veh, RNGTT / RFU, OGT / Fold change vs veh, OGT / RFU, BRD1 / Fold change vs veh, BRD1 / RFU, MARS / Fold change vs veh, MARS / RFU, ZNF655 / Fold change vs veh, ZNF655 / RFU, FAHD1 / Fold change vs veh, FAHD1 / RFU, BDP1 / Fold change vs veh, BDP1 / RFU, LRRCC1 / Fold change vs veh, LRRCC1 / RFU, ARID1A / Fold change vs veh, ARID1A / RFU, ZNF146 / Fold change vs veh, ZNF146 / RFU, ZNF330 / Fold change vs veh, ZNF330 / RFU, GPN3 / Fold change vs veh, GPN3 / RFU, C9orf123 / Fold change vs veh, C9orf123 / RFU, N4BP2L2 / Fold change vs veh, N4BP2L2 / RFU, ARFIP1 / Fold change vs veh, ARFIP1 / RFU, FAM179B / Fold change vs veh, FAM179B / RFU, BCL10 / Fold change vs veh, BCL10 / RFU, UHRF1BP1L / Fold change vs veh, UHRF1BP1L / RFU, BET1 / Fold change vs veh, BET1 / RFU, CNOT2 / Fold change vs veh, CNOT2 / RFU, ZNF268 / Fold change vs veh, ZNF268 / Fold change vs veh, ZNF507 / RFU, DGCR2 / Fold change vs veh, DGCR2 / RFU, WDSUB1 / Fold change vs veh, WDSUB1 / Fold change vs veh, HSP90B1 /// MIR3652 / RFU, ADSS / Fold change vs veh, ADSS / RFU, GK / Fold change vs veh, GK / RFU, ZNF148 / Fold change vs veh, ZNF148 / RFU, TAF9 / Fold change vs veh, TAF9 / RFU, SLC1A5 / Fold change vs veh, SLC1A5 / RFU, SLMO2 / Fold change vs veh, SLMO2 / RFU, ABCC4 / Fold change vs veh, ABCC4 / RFU, LOC101060439 /// RAP1B / Fold change vs veh, LOC101060439 /// RAP1B / RFU, RFX7 / Fold change vs veh, RFX7 / RFU, GTPBP10 / Fold change vs veh, GTPBP10 / RFU, CNEP1R1 / Fold change vs veh, CNEP1R1 / RFU, BIVM-ERCC5 /// ERCC5 / Fold change vs veh, BIVM-ERCC5 /// ERCC5 / RFU, ILF3 / Fold change vs veh, ILF3 / RFU 11762660_at / Fold change /veh 11762660_at / RFU VCAN (11757783_s_at) / Fold change /veh VCAN (11757783_s_at) / RFU DDX43 (11728927_at) / Fold change /veh DDX43 (11728927_at) / RFU KRT8 (11758188_x_at) / Fold change /veh KRT8 (11758188_x_at) / RFU NKD1 (11759106_at) / Fold change /veh NKD1 (11759106_at) / RFU SRD5A1 (11742802_a_at) / Fold change /veh SRD5A1 (11742802_a_at) / RFU TPSAB1 /// TPSB2 (11721975_s_at) / Fold change /veh TPSAB1 /// TPSB2 (11721975_s_at) / RFU GSTM3 (11746129_a_at) / Fold change /veh GSTM3 (11746129_a_at) / RFU IL23R (11737362_x_at) / Fold change /veh IL23R (11737362_x_at) / RFU TMEM51 (11727254_a_at) / Fold change /veh TMEM51 (11727254_a_at) / RFU PIWIL2 (11732686_x_at) / Fold change /veh PIWIL2 (11732686_x_at) / RFU ORM1 (11744905_x_at) / Fold change /veh ORM1 (11744905_x_at) / RFU CCDC152 (11743942_at) / Fold change /veh CCDC152 (11743942_at) / RFU ECM1 (11717891_a_at) / Fold change /veh ECM1 (11717891_a_at) / RFU IL23R (11748794_a_at) / Fold change /veh IL23R (11748794_a_at) / RFU TNFAIP8L3 (11732012_x_at) / Fold change /veh TNFAIP8L3 (11732012_x_at) / RFU MBOAT4 (11741988_at) / Fold change /veh MBOAT4 (11741988_at) / RFU 11764193_at / Fold change /veh 11764193_at / RFU TMEM53 (11763286_at) / Fold change /veh TMEM53 (11763286_at) / RFU MAGEB2 (11727129_at) / Fold change /veh MAGEB2 (11727129_at) / RFU TMEM200A (11744735_a_at) / Fold change /veh TMEM200A (11744735_a_at) / RFU CCDC152 (11751479_a_at) / Fold change /veh CCDC152 (11751479_a_at) / RFU FAM211A (11726209_a_at) / Fold change /veh FAM211A (11726209_a_at) / RFU RGS16 (11746705_a_at) / Fold change /veh RGS16 (11746705_a_at) / RFU VCAN (11755009_s_at) / Fold change /veh VCAN (11755009_s_at) / RFU RHOB (11743442_s_at) / Fold change /veh RHOB (11743442_s_at) / RFU RGS16 (11720943_a_at) / Fold change /veh RGS16 (11720943_a_at) / RFU RGS16 (11720944_at) / Fold change /veh RGS16 (11720944_at) / RFU, VPS4B / Fold change vs veh, VPS4B / RFU, CREB1 / Fold change vs veh, CREB1 / RFU, DNAJC13 / Fold change vs veh, DNAJC13 / RFU, GNAQ / Fold change vs veh, GNAQ / RFU, CDK5R1 / Fold change vs veh, CDK5R1 / RFU, ZRANB3 / Fold change vs veh, ZRANB3 / RFU, CUL4A / Fold change vs veh, CUL4A / RFU, CCNY / Fold change vs veh, CCNY / RFU, UFL1 / Fold change vs veh, UFL1 / RFU, COG3 / Fold change vs veh, COG3 / RFU, DIAPH2 / Fold change vs veh, DIAPH2 / RFU, SKA2 / Fold change vs veh, SKA2 / RFU, AFF3 / Fold change vs veh, AFF3 / RFU, LMF1 / Fold change vs veh, LMF1 / RFU, IPO11 / Fold change vs veh, IPO11 / RFU, DFFB / Fold change vs veh, DFFB / RFU, FOXP1 / Fold change vs veh, FOXP1 / RFU, CARD8 / Fold change vs veh, CARD8 / RFU, STRN3 / Fold change vs veh, STRN3 / RFU, ADK / Fold change vs veh, ADK / RFU, RASSF2 / Fold change vs veh, RASSF2 / RFU, WIPF1 / Fold change vs veh, WIPF1 / RFU, LARP1B / Fold change vs veh, LARP1B / RFU, RASA1 / Fold change vs veh, RASA1 / RFU, RB1 / Fold change vs veh, RB1 / RFU, PPFIA1 / Fold change vs veh, PPFIA1 / RFU, MAT2A / Fold change vs veh, MAT2A / RFU, CCT5 / Fold change vs veh, CCT5 / RFU, WDR92 / Fold change vs veh, WDR92 / RFU, CUX1 / Fold change vs veh, CUX1 / RFU, TTC7A / Fold change vs veh, TTC7A / RFU, TMEM135 / Fold change vs veh, TMEM135 / RFU, DEPTOR / Fold change vs veh, DEPTOR / RFU, CPM / Fold change vs veh, CPM / RFU, DNAJB6 / Fold change vs veh, DNAJB6 / RFU, CACNA2D3 / Fold change vs veh, CACNA2D3 / RFU, DTX4 / Fold change vs veh, DTX4 / RFU, TFCP2 / Fold change vs veh, TFCP2 / RFU, GMCL1 /// GMCL1P1 / Fold change vs veh, GMCL1 /// GMCL1P1 / RFU, AEBP2 / Fold change vs veh, AEBP2 / RFU, SNHG1 /// SNORD22 /// SNORD25 /// SNORD26 /// SNORD27 /// SNORD28 /// SNORD29 /// SNORD31 / Fold change vs veh, SNHG1 /// SNORD22 /// SNORD25 /// SNORD26 /// SNORD27 /// SNORD28 /// SNORD29 /// SNORD31 / Fold change (Aza/veh), C12orf56 (ProbeSet 11735607_a_at) / Fold change (ACY-1035/veh), C12orf56 (ProbeSet 11735607_a_at) / Fold change (Aza/veh), FGFR1OP (ProbeSet 11751329_s_at) / Fold change (ACY-1035/veh), FGFR1OP (ProbeSet 11751329_s_at) / Fold change (Aza/veh), VPS36 (ProbeSet 11739960_a_at) / Fold change (ACY-1035/veh), VPS36 (ProbeSet 11739960_a_at) / RFU SYPL1 (11715823_x_at) / Fold change /veh SYPL1 (11715823_x_at) / RFU IGFBP7 (11715501_s_at) / Fold change /veh IGFBP7 (11715501_s_at) / RFU REEP3 (11722064_at) / Fold change /veh REEP3 (11722064_at) / RFU IGLL1 (11728026_x_at) / Fold change /veh IGLL1 (11728026_x_at): dose or concentration left out as unconfirmed", "conditions": "MV-4-11 cells, 48 hours", "data": [{"smiles": "Nc1ccc(-c2cccs2)cc1NC(=O)c1ccc2c(c1)cc(C1CC1)n2CCN1CCOCC1", "note": "[ACY-1035]", "values": [{"measurement": "RFU RGS16 (11720943_a_at)", "result": 70.47, "unit": "RFU"}]}]}
